The results in this text go back to ChEMBL document CHEMBL1122523, “2-[[[2-(2,6-Dimethoxyphenoxy)ethyl]amino]-methyl] -1,4-benzoxathian: a new antagonist with high potency and selectivity toward alpha 1-adrenoreceptors” (J Med Chem, 1984).

The target in assay [1] is T1, Adrenergic receptor alpha-1 (Rattus norvegicus, UniProt P15823+P23944+P43140).
T1 sequence (P15823 whole entry): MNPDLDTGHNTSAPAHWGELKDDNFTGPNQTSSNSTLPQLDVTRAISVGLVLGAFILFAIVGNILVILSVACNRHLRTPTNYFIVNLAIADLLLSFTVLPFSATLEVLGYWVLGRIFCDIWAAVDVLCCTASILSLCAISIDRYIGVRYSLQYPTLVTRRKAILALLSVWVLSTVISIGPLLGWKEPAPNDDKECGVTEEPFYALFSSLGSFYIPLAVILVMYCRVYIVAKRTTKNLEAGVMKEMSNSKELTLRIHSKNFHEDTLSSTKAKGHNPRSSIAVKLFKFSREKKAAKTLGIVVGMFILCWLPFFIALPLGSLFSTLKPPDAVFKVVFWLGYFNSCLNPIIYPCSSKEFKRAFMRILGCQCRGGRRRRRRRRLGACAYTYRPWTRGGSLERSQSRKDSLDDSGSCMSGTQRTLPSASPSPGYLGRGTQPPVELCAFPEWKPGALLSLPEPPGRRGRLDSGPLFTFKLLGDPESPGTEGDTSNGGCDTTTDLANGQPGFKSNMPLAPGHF
T1 sequence (P23944 whole entry): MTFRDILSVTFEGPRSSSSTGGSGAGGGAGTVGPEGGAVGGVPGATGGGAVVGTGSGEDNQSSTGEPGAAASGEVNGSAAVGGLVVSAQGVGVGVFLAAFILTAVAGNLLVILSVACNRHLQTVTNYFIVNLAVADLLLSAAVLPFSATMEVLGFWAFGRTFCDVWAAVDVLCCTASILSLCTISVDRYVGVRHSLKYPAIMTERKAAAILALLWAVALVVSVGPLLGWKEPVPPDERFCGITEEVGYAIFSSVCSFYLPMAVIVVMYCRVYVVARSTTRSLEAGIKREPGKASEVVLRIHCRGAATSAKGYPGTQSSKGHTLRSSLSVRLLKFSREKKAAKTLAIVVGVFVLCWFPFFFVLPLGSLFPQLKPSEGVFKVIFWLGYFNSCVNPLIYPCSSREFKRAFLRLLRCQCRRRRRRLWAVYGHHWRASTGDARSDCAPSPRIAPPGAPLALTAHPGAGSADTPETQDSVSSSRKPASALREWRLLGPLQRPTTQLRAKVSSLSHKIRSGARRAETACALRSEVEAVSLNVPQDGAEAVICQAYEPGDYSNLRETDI
T1 sequence (P43140 whole entry): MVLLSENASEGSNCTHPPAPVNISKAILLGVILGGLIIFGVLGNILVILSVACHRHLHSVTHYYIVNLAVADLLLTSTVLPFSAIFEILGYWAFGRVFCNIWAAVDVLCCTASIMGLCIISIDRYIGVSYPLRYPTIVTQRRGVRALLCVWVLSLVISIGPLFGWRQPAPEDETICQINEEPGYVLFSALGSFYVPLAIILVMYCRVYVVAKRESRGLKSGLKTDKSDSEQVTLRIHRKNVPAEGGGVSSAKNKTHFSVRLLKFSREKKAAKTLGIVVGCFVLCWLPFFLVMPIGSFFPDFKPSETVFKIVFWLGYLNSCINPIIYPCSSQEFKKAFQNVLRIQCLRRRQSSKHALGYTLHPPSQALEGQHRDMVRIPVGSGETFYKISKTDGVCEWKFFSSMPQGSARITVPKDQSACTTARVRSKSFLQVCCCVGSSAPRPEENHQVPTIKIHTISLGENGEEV
Nature of the assay: Alpha-1 adrenergic receptor antagonist activity against agonist (norepinephrine) in isolated rat vas deferens. The format is functional, tissue-based.

In assay [2] the target is T2, Adrenergic receptor alpha-2 (Rattus norvegicus, UniProt P22086+P19328+P22909).
T2 sequence (P22086 whole entry): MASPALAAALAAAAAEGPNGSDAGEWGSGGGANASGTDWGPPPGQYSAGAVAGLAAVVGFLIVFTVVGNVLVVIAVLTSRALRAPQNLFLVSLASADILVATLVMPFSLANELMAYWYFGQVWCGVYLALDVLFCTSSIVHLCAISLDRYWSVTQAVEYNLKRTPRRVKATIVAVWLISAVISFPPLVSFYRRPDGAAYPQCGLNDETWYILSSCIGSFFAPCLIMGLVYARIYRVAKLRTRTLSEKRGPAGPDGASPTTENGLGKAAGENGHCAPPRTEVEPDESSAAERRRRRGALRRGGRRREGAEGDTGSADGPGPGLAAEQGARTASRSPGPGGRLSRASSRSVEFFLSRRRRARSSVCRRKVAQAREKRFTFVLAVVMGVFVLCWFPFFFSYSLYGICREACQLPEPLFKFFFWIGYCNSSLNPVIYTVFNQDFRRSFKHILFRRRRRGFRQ
T2 sequence (P19328 whole entry): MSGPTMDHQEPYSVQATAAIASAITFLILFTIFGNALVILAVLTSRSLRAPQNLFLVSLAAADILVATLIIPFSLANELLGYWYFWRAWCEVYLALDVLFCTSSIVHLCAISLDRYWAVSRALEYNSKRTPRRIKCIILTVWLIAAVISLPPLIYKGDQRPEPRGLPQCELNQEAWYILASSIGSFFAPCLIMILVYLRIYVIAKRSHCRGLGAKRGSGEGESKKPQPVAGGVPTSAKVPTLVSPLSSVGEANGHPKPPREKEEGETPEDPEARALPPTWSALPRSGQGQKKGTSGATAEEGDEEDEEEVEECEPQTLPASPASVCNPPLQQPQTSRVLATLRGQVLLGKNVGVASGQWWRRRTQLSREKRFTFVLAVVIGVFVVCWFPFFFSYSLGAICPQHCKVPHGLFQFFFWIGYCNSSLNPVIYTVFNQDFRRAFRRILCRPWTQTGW
T2 sequence (P22909 whole entry): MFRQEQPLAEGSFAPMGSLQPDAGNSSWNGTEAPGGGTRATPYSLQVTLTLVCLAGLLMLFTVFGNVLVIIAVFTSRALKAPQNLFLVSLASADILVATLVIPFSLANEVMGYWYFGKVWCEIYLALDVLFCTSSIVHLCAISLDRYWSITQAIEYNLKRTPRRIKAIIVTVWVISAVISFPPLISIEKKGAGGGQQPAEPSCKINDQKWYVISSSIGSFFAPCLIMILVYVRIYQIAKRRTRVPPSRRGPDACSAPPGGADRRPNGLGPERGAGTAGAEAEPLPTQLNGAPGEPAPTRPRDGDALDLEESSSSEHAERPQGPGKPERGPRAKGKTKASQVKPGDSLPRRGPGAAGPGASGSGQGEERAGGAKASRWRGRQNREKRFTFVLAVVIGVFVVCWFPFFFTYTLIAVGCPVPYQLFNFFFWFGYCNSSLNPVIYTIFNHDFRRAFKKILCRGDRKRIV
Nature of the assay: Alpha-2 adrenergic receptor antagonist activity against agonist (clonidine) in isolated rat vas deferens. The class given is functional, tissue-based.

Take `COc1cccc(OC)c1OCCNCC1COc2ccccc2O1.Cl` (centres undefined) [2- (2,6-DIMETHOXYPHENOXYETHYL)AMINOMETHYL-1,4-BENZODIOXANE HYDROCHLORIDE (WB 4101)]: the results for the pA2 in assay [1] and in assay [2] were 8.83 and 6.29, respectively.

In the case of `COc1cccc(OC)c1OCCNCC1CSc2ccccc2O1.Cl` (centres undefined) [BENOXATHIAN HYDROCHLORIDE], the pA2 (commonly the negative logarithm of the molar antagonist concentration that doubles the agonist concentration needed for the same response) in assay [1] was determined as 9.26; in assay [2], 6.26.
